Values quoted from earlier work, collected in US20100204282A1, “Reverse indoles as 5-lipoxygenase-activating protein (FLAP) inhibitors” (priority 2007, published 2010).

Tests used:
[1] = for efficacy in asthma: in vivo
[2] = tested on: rat photochemical model of endothelial injury
[3] = tested on: porcine carotid injury model
[4] = tested on: mouse model of renal ischemia

SMILES | efficacy in asthma [1] | also measured
O=C(O)[C@@H](c1ccc(OCc2ccc3ccccc3n2)cc1)C1CCCC1 [BAY X1005, (R)-2-[4-(quinolin-2-yl-methoxy)phenyl]-2-cyclopentyl acetic acid] | have efficacy in asthma | –
CC(C)(C)Sc1c(CC(C)(C)C(=O)O)n(Cc2ccc(Cl)cc2)c2ccc(OCc3ccc4ccccc4n3)cc12 [MK-0591, 2-((5-((quinolin-2-yl)methoxy)-1-(4-chlorobenzyl)-3-(tert-butylthio)-1H-indol-2-yl)methyl)-2-methylpropanoic acid] | have efficacy in asthma | –
CC(C)c1ccc2c(c1)c(SC(C)(C)C)c(CC(C)(C)C(=O)O)n2Cc1ccc(Cl)cc1 [MK-886, 2-((1-(4-chlorobenzyl)-3-(tert-butylthio)-5-isopropyl-1H-indol-2-yl)methyl)-2-methylpropanoic acid] | have efficacy in asthma | femoral artery intimal hyperplasia [2]: suppresses femoral artery intimal hyperplasia; postangioplasty vasoconstrictive response [3]: decreases the postangioplasty vasoconstrictive response
CC(C)(O)c1ccccc1CCC(SCC1(CC(=O)O)CC1)c1cccc(C=Cc2ccc3ccc(Cl)cc3n2)c1 (stereo not drawn) [montelukast, [1-[[1-[3-[2-[(7-chloro-2-quinolyl)]vinyl]phenyl]-3-[2-(1-hydroxy-1-methyl-ethyl)phenyl]-propyl]sulfanylmethyl]cyclopropyl]acetic acid] | – | efficacy in asthma and allergic rhinitis ([1]; CysLT1 receptor antagonist): efficacious in asthma and allergic rhinitis
COc1cc(C(=O)NS(=O)(=O)c2ccccc2C)ccc1Cc1cn(C)c2ccc(NC(=O)OC3CCCC3)cc12 [zafirlukast] | efficacious in asthma | –
CC(c1cc2ccccc2s1)N(O)C(N)=O (stereo not drawn) [zileuton] | has efficacy in asthma | renal ischemia [4]: reduce renal ischemia
